# Assay results reported in patent US20240115527A1, “CXCR1/CXCR2 INHIBITORS FOR USE IN TREATING MYELOFIBROSIS” (Icahn School of Medicine at Mount Sinai, priority 2020, published 2024).
# What was measured:
# Assay type in all cases: cell-based, human
# [1] = tested on: normal CD34+ cells; test: Hematopoietic colony formation by normal CD34+ cells with IL-8; details: addition of ladarixin, FIG. 5B
# [2] = tested on: MF CD34+, CD41+ and CD33+ cells; test: Proliferation and lineage differentiation of MF mononuclear cells cultured with IL-8, flow cytometry; details: ladarixin added to IL-8 culture, FIG. 4A
# Protocol: To evaluate the effects of IL-8 on MF CD34^+ cells proliferation and lineage differentiation, MF mononuclear cells (MNC cells) were cultured with StemSpan™ Serum-Free Expansion Medium (SFEM) containing 20 ng/ml of stem cell factor (SCF), thrombopoietin (TPO), FL-3L and IL-3 with or without 50 ng/ml of IL-8. The cells were harvested after 3 days of incubation. The proportion of hematopoietic cells belonging to specific lineages were determined using flow cytometry.
# [3] = tested on: normal donor CD34+ cells; test: Proliferation and lineage differentiation of normal donor cells cultured with IL-8, flow cytometry; details: ladarixin added to IL-8 culture, FIG. 4A
# [4] = tested on: MF CD34+ cells; test: Colony forming assay (CFU-GM) of cultured MF CD34+ cells with IL-8
# Excerpt: FIGS. 5A, 5B. 5C, 5D, and 5E illustrate that a CXCR1/CXCR2 inhibitor reverses effects of IL-8 on MF CD34^+ cell colony formation. […] CFU-GM=colony-forming unit-granulocyte-macrophage. FIGS. 5B and 5C illustrate that IL-8 increased CFU-GM colony formation by MF CD34^+ cells in a dose dependent fashion and that the effects of IL-8 were inhibited by treatment with Ladx. FIG. 5B. Normal cells. FIG. 5C. MF cells. […] Con=control. IL-8 concentrations increase from left to right. […] P values were as follows: w/o Ladx: Con vs IL-8—10 ng: 0.159332; Con vs IL-8—20 ng: 0.011976; Con vs IL-8—50 ng: 0.00262; Con vs IL-8—100 ng: 0.00042; w/ 10 μM Ladx: Con vs Ladx: 0.315782; IL-8—10 ng vs plus Ladx: 0.295851; IL-8—20 ng vs plus Ladx: 0.077726; IL-8—50 ng vs plus Ladx: 0.031355; IL-8—100 ng vs plus Ladx: 0.081595.
compound,measurement,setting,value
"C[C@@H](C(=O)NS(C)(=O)=O)c1ccc(OS(=O)(=O)C(F)(F)F)cc1 [Ladarixin, R(-)-2-[(4′-trifluoromethanesulfonyloxy)phenyl]-N-methanesulfonyl propionamide]",hematopoietic colony formation by normal CD34+ cells,[1],did not affect
same,"effect on IL-8 induced change of percentage of MF CD34+, CD41+ and CD33+ cells",[2],reversed the effects of IL-8
same,"effect on IL-8 induced change of normal CD34+, CD41+ and CD33+ cell populations",[3],reversed the effects of IL-8
same,effect on IL-8 increased CFU-GM colony formation by MF samples with the highest expression of CXCR1/CXCR2,"[4]; 10 μM Ladx, FIG. 5E",corrected
same,effect on IL-8 increased numbers of MF CFU-GM colonies,"[4]; addition of ladarixin, FIG. 5C",blunted
